The subject of this experiment is vancomycin resistant E. faecium (VRE) (ATCC 51559). Briefly: Antibacterial activity (MIC), modified micro-dilution broth. The note with it: 24 h, read-out: MIC VRE. Format: cell-based, Vancomycin resistant Enterococcus faecium.

These results are taken from patent publication US9636356B2, “Nanoparticle compositions of antibacterial compounds and other uses thereof” (JAWAHARLAL NEHRU CENTRE FOR ADVANCED SCIENTIFIC RESEARCH, priority 2012, dated 2017).

Experimental: E. coli is cultured in Luria Bertani broth (10 g of tryptone, 5 g of yeast extract, and 10 g of NaCl in 1000 mL of sterile distilled water (pH −7) while S. aureus, P. aeruginosa and MRSA are grown in Yeast-dextrose broth (1 g of beef extract, 2 g of yeast extract, 5 g of peptone and 5 g of NaCl in 1000 mL of sterile distilled water). For E. faecium and VRE, Brain Heart Infusion broth (BHI) is used. K. pneumoniae is grown in nutrient media (3 g of beef extract and 5 g of peptone in 1000 mL of sterile distilled water). For solid media 5% agar is used along with above mentioned composition. The bacterial samples are freeze dried and stored at −80° C. 5 μl of these stocks are added to 3 mL of the nutrient broth and the culture is grown for 6 h at 37° C. prior to the experiments.
Antibacterial activity is determined with the slight modifications of standardized protocols. Water-soluble Q-PIBMI derivatives are assayed in a modified micro-dilution broth format. […] Bacteria, to be tested, grown for 6 h in the suitable media containing ˜10^9 cfu/mL (determined by spread plating method), which is then diluted to 10^5 cfu/mL using nutrient media. […] MIC value is determined by taking the average of triplicate O.D. values for each concentration and plotting it against concentration using Origin Pro 8.0 software. […]

`CN[C@H](CC(C)C)C(=O)N[C@H]1C(=O)N[C@@H](CC(N)=O)C(=O)N[C@H]2C(=O)N[C@H]3C(=O)N[C@H](C(=O)N[C@H](C(=O)O)c4cc(O)cc(O)c4-c4cc3ccc4O)[C@H](O)c3ccc(c(Cl)c3)Oc3cc2cc(c3O[C@@H]2O[C@H](CO)[C@@H](O)[C@H](O)[C@H]2O[C@H]2C[C@](C)(N)[C@H](O)[C@H](C)O2)Oc2ccc(cc2Cl)[C@H]1O` [Vamcomycin]: the MIC was more than 156 µg/mL.
